Experimental data: patent US8304438B2, “Heteroarylacrylamides and their use as pharmaceuticals” (Sanofi, priority 2006, dated 2012)
Counter-ions that a name gives are not always drawn.

Test system: eNOS promoter
Assay: Activation of eNOS transcription (eNOS promoter firefly luciferase reporter gene assay)
Assay type: cell-based
Conditions: human endothelial cell line stable transfected with eNOS promoter-luciferase construct; 18 h incubation; EC50 determined graphically; read-out: EC50 values of transcription induction ratios (TIR)
Experimental: Activation of eNOS transcription was measured as described in detail by L^1 et al., “Activation of protein kinase C alpha and/or epsilon enhances transcription of the human endothelial nitric oxide synthase gene”, Mol. Pharmacol. 53 (1998) 630. Briefly, a 3.5 kB long fragment 5′ of the starting codon of the eNOS gene was cloned, sequenced and cloned in firefly luciferase expression plasmids to monitor activation of the eNOS promoter by reporter gene activity. A human endothelial cell line stable transfected and expressing this promoter-reporter construct was used for compound testing. Cells were incubated for 18 h with the compounds.
All compounds were dissolved in sterile dimethyl sulfoxide (DMSO). A final concentration of 0.5% DMSO in complete medium was allowed. Induction of reporter gene expression in these cells was measured using a standard luciferase assay system (Promega, Cat. No. E150) according to the manufacturer's instructions. Luciferase induction in cells incubated with compounds were compared to those incubated with solvent alone. The ratio of both activities (transcription induction ratio, TIR) was plotted as a function of compound concentration. Typically, TIR values started at low concentrations at a ratio of 1, indicating no compound effect, and extended up to a maximum TIR value TIR(max) which indicates the increase of the eNOS transcription. EC50 values of transcription induction ratios as a function of compound concentration were determined graphically.

| SMILES | EC50 [nM] |
| --- | --- |
| O=C(/C=C/c1ccc(-c2cc3ccccc3s2)nc1)N1CCCCC1 [Example 125, 3-(6-(Benzo[b]thiophen-2-yl)-pyridin-3-yl)-1-(piperidin-1-yl)-propenone] | 500 to 5000 |
| O=C(/C=C/c1cnc2ccccc2c1)N1CCCCC1 [Example 1, 1-(Piperidin-1-yl)-3-(quinolin-3-yl)-propenone] | 500 to 5000 |
| O=C(/C=C/c1ccc(Oc2ccc(F)cc2)nc1)N1CCCCC1 [Example 76, 3-[6-(4-Fluoro-phenoxy)-pyridin-3-yl]-1-(piperidin-1-yl)-propenone Trifluoroacetic Acid Salt] | 500 to 5000 |
| O=C(/C=C/c1ccc(-c2ccccc2F)s1)Nc1ccccc1 [Example 150, 3-[5-(2-Fluoro-phenyl)-thiophen-2-yl]-N-phenyl-acrylamide] | 500 to 5000 |

The remaining lines, values ahead:

| EC50 [nM] | SMILES |
| --- | --- |
| 500 to 5000 | O=C(/C=C/c1ccc(-c2ccccc2OC(F)(F)F)o1)N1CCCCC1 [Example 13, 1-(Piperidin-1-yl)-3-[5-(2-trifluoromethoxy-phenyl)-furan-2-yl]-propenone] |
| < 500 | O=C(/C=C/c1cc(-c2ccccc2F)cs1)N1CCCCC1 [Example 15, 3-[4-(2-Fluoro-phenyl)-thiophen-2-yl]-1-(piperidin-1-yl)-propenone] |
| 500 to 5000 | O=C(/C=C/c1nc(-c2ccc(F)cc2)cs1)Nc1ccccn1 [Example 116, 3-[4-(4-Fluoro-phenyl)-thiazol-2-yl]-N-(pyridin-2-yl)-acrylamide] |
| < 500 | C/C(=C\C(=O)N(C)C)c1ccc(-c2ccccc2F)nc1 [Example 110, 3-[6-(2-Fluoro-phenyl)-pyridin-3-yl]-but-2-enoic Acid Dimethylamide Trifluoroacetic Acid Salt] |
| < 500 | CC(C)N(C(=O)/C=C/c1nc(-c2ccc(F)cc2)cs1)C(C)C [Example 145, 3-[4-(4-Fluoro-phenyl)-thiazol-2-yl]-N,N-diisopropyl-acrylamide] |
| < 500 | CC(C)(C)NC(=O)/C=C/c1nc(-c2ccc(F)cc2)cs1 [Example 146, N-tert-Butyl-3-[4-(4-fluoro-phenyl)-thiazol-2-yl]-acrylamide] |
| 500 to 5000 | C/C(=C\C(=O)N1CCCCC1)c1cc(-c2ccccc2F)cs1 [Example 123, 3-[4-(2-Fluoro-phenyl)-thiophen-2-yl]-1-(piperidin-1-yl)-but-2-en-1-one] |
